# From US20250052985A1, “SYSTEM AND METHOD FOR QUANTITATIVE PHASE IMAGING FOR MULTI-PARAMETRIC SCREENING OF TUMOR THERAPY RESPONSE” (UNIVERSITY OF UTAH RESEARCH FOUNDATION, priority 2023, published 2025)
# Several values for one entry are separate records, joined by “and”; a condition that tells them apart may be missing. Identical values can stand only once. Like-named read-outs stand apart in the source and are kept apart here.
# Columns and labels:
# MCF-7 cells [1] = test: CellTiter-Glo (CTG) ATP viability assay, MCF-7; format: cell-based; settings: for Min Asymptote: MCF-7, Hill fit of luminescence normalized to solvent control, one line per replicate; for EC50: Homo sapiens; for DoR CTG: MCF-7 cell line, depth of response
# Experimental: (§1) CTG (e.g., read by the CTG reader 115) is a cell viability assay that quantifies the amount of ATP present at the end of an experiment as an indicator of the number of live cells. The electronic controller 155 measures ATP content in each condition as a readout by a luminescent signal, which is normalized by the luminescence of the control (e.g., a control well) to determine cell viability relative to on-plate controls. In some embodiments, the CTG assay is performed by first removing 100 μL of media from each well on the well-plate 105, which is then replaced with an equal amount of CellTiter-Glo reagent (e.g., Promega, G7572). Assayed plates may be shaken at 500 RPM for 20 minutes and allowed to rest for 10 minutes. In some instances, 100 μL of volume from each well is transferred to a white 96-well plate (e.g., Perkin Elmer, 6005680). The electronic controller 155 collects luminescence data from each well using an Envision plate reader (e.g., Perkin Elmer) and normalized against the solvent control to measure ATP content. The electronic controller 155 fits a 4-parameter hill curve to the dose response to determine the EC50 and depth of response.
# MDA-MB-231 cells [2] = test: CellTiter-Glo (CTG) ATP viability assay, MDA-MB-231; format: cell-based; settings: for Min Asymptote: MDA-MB-231, Hill fit of luminescence normalized to solvent control, one line per replicate; for EC50: Homo sapiens; for DoR CTG: MDA-MB-231 cell line, depth of response
# Experimental: as §1
# MDA-MB-231 cells [3] = test: Quantitative phase imaging (QPI) growth response, MDA-MB-231; format: cell-based; design: DoR QPI: scale not given here; ToR 20 μM: unit not given here; settings: for Max Asymptote / Min Asymptote: MDA-MB-231, 4-parameter Hill fit of mean SGR vs concentration, one line per replicate; for DoR QPI / ToR 20 μM: MDA-MB-231 cell line; for DoR QPI: depth of response; for ToR 20 μM: time of response at 20 μM; for EC50: Homo sapiens
# From the text: (§2) In some embodiments, breast cancer cell lines are imaged, representing diverse clinical subtypes, summarized in Table 2 below, using a QPI microscope (FIG. 1A) based on differential phase contrast (DPC) microscopy and phase reconstruction via a QPI microscope system. DPC is used for image acquisition and phase reconstruction because DPC's flexible design may be customized for high throughput phase measurements. […] As illustrated in the embodiment of FIG. 1A, a QPI microscope system 100 conducts assays in a 96-well plate (e.g., a well-plate 105) with 6-point dose response curves and up to five therapies in triplicate including solvent controls, summarized in Table 4 below. As described below, in reference to FIG. 1A, a growth response of cells is measured noninvasively using QPI via a QPI microscope system 110 before being assayed using a CTG reader 115.
# (§3) FIG. 1B illustrates a timeline plot 200 showing two plates (e.g., two, separate well-plates 105) set up in parallel to measure cell viability. With reference to FIG. 1B, two plates are set-up simultaneously for each experiment. A first plate 205 is incubated for 27 hours (h) post drug exposure prior to CTG analysis (3 h equilibration+24 h of imaging), which measures cell adenosine triphosphate (ATP) content as a surrogate for cell viability. A second plate 210 is imaged for 72 h after 3 h equilibration (e.g., 75 h) and followed by CTG. […] The imaging locations are imaged for 72 h, as shown by images 1700-1715 of FIG. 7.
# (§4) In some embodiments, a dose-dependent change in growth, as indicated by a change in the rate of mass accumulation or loss, is a parameter that can be extracted from QPI dose-response data. […] Individual specific growth rate measurements are indicated by points in the distribution of the graph 1200 of FIG. 2A. Blue is indicative of the DMSO control and red is indicative of doxorubicin. The black outline is a kernel density function fit to the distribution of specific growth rates for each condition (e.g., *p<0.05, **p<0.01). In some embodiments, the average SGR of each condition is fit to a sigmoid dose-response curve using a Hill equation. For example, computed logistic fit parameters using a 4-parameter Hill model via the QPI microscope system 110 for all conditions are summarized in Tables 5-8 below. To determine if there is a response, as illustrated by FIG. 2B, the QPI microscope system 110 tests goodness of fit, adjusts for degrees of freedom using an F-test at significance p<0.01 by comparison to a flat line, as an indicator of no response. For cases with a better fit to the Hill equation, the 4-parameter Hill curve may be used by the QPI microscope system 110 to determine the EC50, a measure of sensitivity to therapy because it represents the effective concentration at which 50% of the cells respond to therapy, as illustrated by FIG. 10. […] A 4-parameter Hill curve is fit to each dose response plot to extract the depth of response and EC50 for each cell/drug pair. A flat line represents no response due to failure of the F-test to reject the null hypothesis that the logistic fit is indistinguishable from a flat line. […] Each color indicates a different drug or therapy used.
# MCF-7 cells [4] = test: cells; settings: for Max Asymptote / Min Asymptote: MCF-7, 4-parameter Hill fit of mean SGR vs concentration, one line per replicate; for Hill Slope: MCF-7, Hill fit; for DoR QPI / ToR 20 μM: MCF-7 cell line; for DoR QPI: depth of response; for ToR 20 μM: time of response at 20 μM; for EC50: Homo sapiens
# From the text: as §2, §3, §4
# BT-474 cells = test: cells; settings: for Max Asymptote / Min Asymptote: BT-474, 4-parameter Hill fit of mean SGR vs concentration, one line per replicate; for Hill Slope / log10(EC50): BT-474, Hill fit; for DoR QPI / ToR 20 μM: BT-474 cell line; for DoR QPI: depth of response; for ToR 20 μM: time of response at 20 μM; for EC50: Homo sapiens
# From the text: as §2, §3, §4
# [5] = BT-474, 24 h, read-out: log10(EC50), 24 h QPI, BT-474, Hill fit (converted), EC50 in μM per Table 1
# [6] = BT-474, read-out: EC50, QPI, BT-474 cell line, QPI growth rate
compound,measurement,setting,value
CC(=O)c1c(C)c2cnc(Nc3ccc(N4CCNCC4)cn3)nc2n(C2CCCC2)c1=O [Palbociclib],Hill Slope,"MCF-7 cells [1]; 72 h CTG, MCF-7, Hill fit",0.7617 and 0.9004
same,log10(EC50),"MCF-7 cells [1]; 72 h CTG, MCF-7, Hill fit",−0.1876
same,Min Asymptote,MCF-7 cells [1]; 72 h CTG,0.1244 (2×) and 0.221
same,EC50,"MCF-7 cells [1]; MCF7, 72 h, 72 h CTG, MCF-7, Hill fit, read-out: log10(EC50) (converted)",1.62 µM
same,DoR CTG,MCF-7 cells [1]; CellTiter-Glo,1.0
same,Hill Slope,"MDA-MB-231 cells [2]; 24 h CTG, MDA-MB-231, Hill fit",6.945
same,Min Asymptote,MDA-MB-231 cells [2]; 24 h CTG,0.2202
same,Min Asymptote,MDA-MB-231 cells [2]; 72 h CTG,0.01895 and 7.98E−09
same,EC50,"MDA-MB-231 cells [2]; MDA-MB-231, 24 h, 24 h CTG, MDA-MB-231, Hill fit, read-out: log10(EC50) (converted)",14.2 µM
same,DoR CTG,MDA-MB-231 cells [2]; CellTiter-Glo,0.7
same,Max Asymptote,MDA-MB-231 cells [3]; 24 h QPI,0.03459 and 0.03302 and 0.02322
same,Min Asymptote,MDA-MB-231 cells [3]; 24 h QPI,0.004781 and −0.01622 and 0.01166
same,Max Asymptote,MDA-MB-231 cells [3]; 72 h QPI,−2.92E−05 and 0.006396 and 0.007784
same,Min Asymptote,MDA-MB-231 cells [3]; 72 h QPI,0.03469 and 0.03153 and 0.02663
same,DoR QPI,MDA-MB-231 cells [3],0.6
same,ToR 20 μM,MDA-MB-231 cells [3],1.6
same,Max Asymptote,MCF-7 cells [4]; 24 h QPI,0.02169
same,Min Asymptote,MCF-7 cells [4]; 24 h QPI,0.01657 and 0.02043
same,Hill Slope,MCF-7 cells [4]; 24 h QPI,1.6152 and 1.0687
same,Max Asymptote,MCF-7 cells [4]; 72 h QPI,0.009479 and 0.01292
same,Min Asymptote,MCF-7 cells [4]; 72 h QPI,0.01776 and 0.02128
same,DoR QPI,MCF-7 cells [4],1.0
same,ToR 20 μM,MCF-7 cells [4],4.4
same,Max Asymptote,BT-474 cells; 24 h QPI,0.01082 and 0.008556 and 0.008815
same,Min Asymptote,BT-474 cells; 24 h QPI,−0.01762 and −0.0277 and −0.01394
same,Hill Slope,BT-474 cells; 24 h QPI,2.2846 and 1.7745 and 2.7163
same,log10(EC50),"BT-474 cells; 24 h QPI, EC50 in μM per Table 1",−1.2331 and −1.2554
same,Max Asymptote,BT-474 cells; 72 h QPI,−0.01228 and −0.0216 and −0.01047
same,Min Asymptote,BT-474 cells; 72 h QPI,0.008887 and 0.008838 and 0.006465
same,log10(EC50),"BT-474 cells; 72 h QPI, EC50 in μM per Table 1",−1.2071 and −1.2126
same,DoR QPI,BT-474 cells,1.6
same,ToR 20 μM,BT-474 cells,−3.0
same,EC50,BT-474 cells; [5],13.9 µM
same,EC50,"BT-474 cells; BT-474, 72 h, read-out: log10(EC50), 72 h QPI, BT-474, Hill fit (converted), EC50 in μM per Table 1",12.3 µM
same,EC50,BT-474 cells; [6],11.8 µM
C[C@]12CC[C@@H]3c4ccc(O)cc4C[C@@H](CCCCCCCCC[S+]([O-])CCCC(F)(F)C(F)(F)F)[C@H]3[C@@H]1CC[C@@H]2O (stereo partly shown) [Fulvestrant],Min Asymptote,MCF-7 cells [1]; 24 h CTG,0.5189 and 0.9446
same,Min Asymptote,MCF-7 cells [1]; 72 h CTG,0.76 and 0.7073 and 0.6956
same,EC50,"MCF-7 cells [1]; MCF7, MCF-7 cell line, CellTiter-Glo, read-out: EC50, CTG (converted)",0.5 µM
same,DoR CTG,MCF-7 cells [1]; CellTiter-Glo,0.3
same,Hill Slope,"MDA-MB-231 cells [2]; 72 h CTG, MDA-MB-231, Hill fit",0.7641
same,Min Asymptote,MDA-MB-231 cells [2]; 72 h CTG,0.01999
same,EC50,"MDA-MB-231 cells [2]; MDA-MB-231, 72 h, 72 h CTG, MDA-MB-231, Hill fit, read-out: log10(EC50) (converted)",31.4 µM
same,EC50,"MDA-MB-231 cells [2]; MDA-MB-231, MDA-MB-231 cell line, CellTiter-Glo, read-out: EC50, CTG",31.4 µM
same,DoR CTG,MDA-MB-231 cells [2]; CellTiter-Glo,1.0
same,Max Asymptote,MDA-MB-231 cells [3]; 24 h QPI,0.02847
same,Min Asymptote,MDA-MB-231 cells [3]; 24 h QPI,0.02401
same,Hill Slope,"MDA-MB-231 cells [3]; 24 h QPI, MDA-MB-231, Hill fit",2.2482
same,Max Asymptote,MDA-MB-231 cells [3]; 72 h QPI,0.01423 and 0.00907
same,Min Asymptote,MDA-MB-231 cells [3]; 72 h QPI,0.02796 and 0.03032
same,Hill Slope,"MDA-MB-231 cells [3]; 72 h QPI, MDA-MB-231, Hill fit",1.492 and 0.9134
same,EC50,"MDA-MB-231 cells [3]; MDA-MB-231, 24 h, 24 h QPI, MDA-MB-231, Hill fit, EC50 in μM per Table 1, read-out: log10(EC50) (converted)",3.43 µM
same,EC50,"MDA-MB-231 cells [3]; MDA-MB-231, MDA-MB-231 cell line, EC50 of the standard deviation, read-out: EC50, SD (converted)",3.32 µM
same,EC50,"MDA-MB-231 cells [3]; MDA-MB-231, MDA-MB-231 cell line, QPI growth rate, read-out: EC50, QPI",11.4 µM
same,DoR QPI,MDA-MB-231 cells [3],0.6
same,ToR 20 μM,MDA-MB-231 cells [3],14.4
same,Max Asymptote,MCF-7 cells [4]; 24 h QPI,0.04169
same,Min Asymptote,MCF-7 cells [4]; 24 h QPI,0.02021
same,Hill Slope,MCF-7 cells [4]; 24 h QPI,0.4537
same,Max Asymptote,MCF-7 cells [4]; 72 h QPI,0.01656 and 0.01573
same,Min Asymptote,MCF-7 cells [4]; 72 h QPI,0.02377 and 0.02811
same,Hill Slope,MCF-7 cells [4]; 72 h QPI,0.5562 and 0.7449
same,EC50,"MCF-7 cells [4]; MCF7, 24 h, read-out: log10(EC50), 24 h QPI, MCF-7, Hill fit (converted), EC50 in μM per Table 1",0.000875 µM
same,EC50,"MCF-7 cells [4]; MCF7, read-out: EC50, QPI, MCF-7 cell line, QPI growth rate",0.2 µM
same,DoR QPI,MCF-7 cells [4],0.4
same,ToR 20 μM,MCF-7 cells [4],23.2
same,cluster mass over time,"MCF-7 cells [4]; small cluster of MCF-7 cells, 20 μM, 10 h to 72 h",grow slowly at the beginning and end the experiment with a lower mass than they started with
same,Max Asymptote,BT-474 cells; 24 h QPI,0.01059
same,Min Asymptote,BT-474 cells; 24 h QPI,0.007383
same,Hill Slope,BT-474 cells; 24 h QPI,0.5448
same,Max Asymptote,BT-474 cells; 72 h QPI,0.006153 and 0.002199 and 0.003561
same,Min Asymptote,BT-474 cells; 72 h QPI,0.009854 and 0.008492 and 0.009456
same,DoR QPI,BT-474 cells,0.6
same,ToR 20 μM,BT-474 cells,28.9
same,EC50,BT-474 cells; [5],13.7 µM
same,EC50,BT-474 cells; [6],11.6 µM
same,EC50,"BT-474 cells; BT-474, read-out: EC50, SD, BT-474 cell line, EC50 of the standard deviation",8.17 µM
